From US12054509B2, “Antimicrobial compounds, compositions, and uses thereof” (Lakewood Amedex, Inc., priority 2017, dated 2024)

How the values were obtained:
E. coli = test: MIC broth microdilution (CLSI) at incremental pH, E. coli; type: cell-based; conditions: Escherichia coli
Procedure: MIC testing is conducted using the broth (Mueller Hinton Broth) microdilution procedures relevant to each organism group as established by the Clinical and Laboratory Standards Institute (CLSI; 3-7). MIC plates are prepared in accordance with CLSI (3-7). To prepare the test plates, automated liquid handlers are used to conduct serial dilutions and liquid transfers. Automated liquid handlers utilized in this study include the Multidrop 384 (Labsystems, Helsinki, Finland) and the Biomek 2000 (Beckman Coulter, Fullerton CA). The solution is diluted to desired pH using 1 M Citric Acid or 1 M NaOH buffer. A standardized inoculum of each test organism is prepared per CLSI methods (3, 5-7) to equal a 0.5 McFarland standard in the appropriate media followed by an additional 1:20 dilution (1:10 for anaerobes).
The plates are then inoculated with 10 μL of the diluted 0.5 McFarland suspension using the Biomek 2000 from low to high drug concentration, resulting in a final concentration of approximately 5×10^5 CFU/mL per well. An un-inoculated plate is incubated for the purpose of assessing solubility of the drug in the test media. The plates are stacked 3 to 4 high, covered with a sterile lid on the top plate, and incubated for 18 to 24 hours according to CLSI. The MIC is recorded as the lowest concentration of respective compound that inhibited visible growth of the organism.

Providencia species = test: MIC at pH 3.5 (CLSI, Mueller-Hinton broth); type: cell-based; conditions: 5 isolates
Procedure: (§1) Bacterial strains evaluated in this study include Escherichia coli, Klebsiella spp, Serratia marcescens, Proteus mirabilis/vulgaris, Citrobacter spp, Providencia spp, Morganella morganii, Pseudomonas aeruginosa, Staphylococcus aureus (MRSA only), and Enterococcus faecalis. Nu-8 test solutions are adjusted to pH 3.5 with citric acid, and MIC is evaluated per the CLSI methods in Mueller-Hinton broth supplemented accordingly to facilitate growth of specific strains.

Escherichia coli = test: MIC at pH 3.5 (CLSI, Mueller-Hinton broth); type: cell-based; conditions: 5 isolates
Procedure: as §1

[1] = test system: Staphylococcus aureus (MRSA); test: MIC at pH 3.5 (CLSI, Mueller-Hinton broth); type: cell-based; conditions: 20 isolates
Procedure: as §1

Citrobacter species = test: MIC at pH 3.5 (CLSI, Mueller-Hinton broth); type: cell-based; conditions: 5 isolates
Procedure: as §1

[2] = test system: Proteus mirabilis/vulgaris; test: MIC at pH 3.5 (CLSI, Mueller-Hinton broth); type: cell-based; conditions: 5 isolates
Procedure: as §1

Enterococcus faecalis = test: MIC at pH 3.5 (CLSI, Mueller-Hinton broth); type: cell-based; conditions: 5 isolates
Procedure: as §1

Klebsiella pneumoniae = test: MIC at pH 3.5 (CLSI, Mueller-Hinton broth); type: cell-based; conditions: 5 isolates
Procedure: as §1

Pseudomonas aeruginosa = test: MIC at pH 3.5 (CLSI, Mueller-Hinton broth); type: cell-based; conditions: 20 isolates
Procedure: as §1

Morganella morganii = test: MIC at pH 3.5 (CLSI, Mueller-Hinton broth); type: cell-based; conditions: 5 isolates
Procedure: as §1

Haemophilus influenzae = test: MIC at pH 3.5 (CLSI, Mueller-Hinton broth); type: cell-based; conditions: 5 isolates
[3] = test system: E. coli ATCC 25922 or P. aeruginosa K2732; test: Bacterial cytological profiling (Example 6), cell viability, strain not stated; type: cell-based; conditions: within minutes, from initial 10^9 CFU/mL
Procedure: (§2) This bacterial cytological profiling (BCP) study uses methods and materials described previously by Nonejuie, P., Burkart, M., Poglianoa, K., Pogiano, J. (2013). Bacterial cytological profiling rapidly identifies the cellular pathways targeted by antibacterial molecules. Proc. Natl. Acad. Sci. U.S.A. 110(40):16169-16174. doi: 10.1073/pnas.1311066110.
(§3) Wild type strains of E. coli ATCC 25922 or P. aeruginosa K2732 are grown in rich media (unbuffered 2× Lysogeny broth [LB]) at 30 C to an OD600˜0.4. These cultures are then split and each sample treated with the appropriate concentration of Nu-8 in unbuffered or buffered LB (final mixture OD600˜0.1). Cells exposed without Nu-8 are buffered to pH 4 with phosphoric acid.
(§4) The BCP is performed in LB media buffered to pH 4. The minimum inhibitory concentration (MIC) is measured for Nu-3, Nu-4, Nu-5, and Nu-8 against each bacterial strain. As one of ordinary skill in the art understands, minimum inhibitory concentrations are the lowest concentration of an antimicrobial that will inhibit the visible growth of a microorganism after overnight incubation. […] Cellular viability is assayed at three time points (5 minutes and 4 and 24 h following the onset of treatment).

E. coli ATCC25922 = test: Urinary tract infection model in Sprague-Dawley rats, transurethral treatment (Example 12); type: in vivo; conditions: 60 min
Procedure: Female Sprague-Dawley rats (n=6/group) are intraurethrally infected with the pre determined inoculum size of E. coli. At the specified time following infection with (depending on the in vivo growth curve), the animals are anaesthetized (ketamine/xylazine) and treated by transurethral administration with neutral saline (group 1), saline pH 3.5 adjusted with phosphoric acid (group 2), test compound Nu-8 pH 3.5 at 103 and 207 mg/kg (groups 3 and 4, respectively). When adjusting pH, the volume of phosphoric acid added are monitored and the final concentration of the pH adjusted dose solution are subsequently determined. The goal is to have the final concentration after pH adjustment within 10% of the desired dose so the final concentration after pH adjustment are reported. Volume of administration will be 300 μL. TABLE 10 (Animal Challenge and Treatment Schedule) summarizes the study groups.
Two hours prior to each infection animals are water deprived. Each animal is infected twice with 24 hrs difference by transurethral administration of 300 μL of bacterial suspension under light ketamine and xylazine anaesthesia. Prior to infection, urine is evacuated by digital pressure, cannula is gently inserted into the bladder via urethra and 300 μL of bacterial suspension is inserted into the bladder. […]

P. aeruginosa K2732 = test: Bacterial cytological profiling (Example 6), P. aeruginosa; type: cell-based;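 for effect on cell envelope: tested at 1 0.5 and 0.25 times MIC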
Procedure: as §2, §3, §4
For imaging E. coli, treated cells are stained with 1 μg/Ml FM4-64, 2 μg/mL DAPI, and 0.5 μM SYTOXGreen (Molecular Probes/Invitrogen). P. aeruginosa samples are stained 0.5 μM SYTOX Green, 28 μg/mL DAPI, and 4.5 μg/mL FM 4-64. Cells are transferred to an agarose pad (20% LB, 1% agarose) for imaging as described in Pogliano, J., Osborne, N., Sharp, M. D., Abanes-De Mello, A., Perez, A., Sun, Y.-L. and Pogliano, K. (1999), A vital stain for studying membrane dynamics in bacteria: a novel mechanism controlling septation during Bacillus subtilis sporulation. Molecular Microbiology, 31: 1149-1159. doi:10.1046/j.1365-2958.1999.01255.x.

CCCCOP(=O)(O)OC[C@H]1O[C@@H](n2ccc(N)nc2=O)C[C@@H]1OP(=O)(O)OCCCC [Nu-8, sodium ((2R,3S,5R)-5-(4-amino-2-oxopyrimidin-1(2H)-yl)-3-((butoxyoxidophosphor-yl)oxy)tetrahydrofuran-2-yl)methyl butyl phosphate] was tested. Which MIC (E. coli; pH 1) did it give?
The MIC was 9.8 mg/mL.

And the MIC (E. coli; pH 3)?
Its MIC is 37.5 mg/mL.

What about the MIC (E. coli; pH 4) of the same compound?
Its MIC is 75 mg/mL.

And the MIC (E. coli; pH 5)?
Its MIC is over 75 mg/mL.

And the MIC (E. coli; pH 7)?
Its MIC is over 75 mg/mL.

What about the MIC (Providencia species) of the same compound?
The MIC was 9.38 to 37.5 mg/mL.

And the MIC (Escherichia coli)?
The MIC was 37.5 mg/mL.

What about the MIC [1] of the same compound?
Its MIC is 9.38 to 37.5 mg/mL.

What about the MIC50 [1] of the same compound?
Its MIC50 is 18.8 mg/mL.

And the MIC90 [1]?
The MIC90 was 37.5 mg/mL.

What about the MIC (Citrobacter species) of the same compound?
The MIC was 18.8 to 37.5 mg/mL.

And the MIC [2]?
Its MIC is 4.69 to 18.8 mg/mL.

And the MIC (Enterococcus faecalis)?
Its MIC is 4.69 to 18.8 mg/mL.

And the MIC (Klebsiella pneumoniae)?
Its MIC is 37.5 to 75 mg/mL.

What about the MIC (Pseudomonas aeruginosa) of the same compound?
Its MIC is 9.38 to 18.8 mg/mL.

And the MIC50 (Pseudomonas aeruginosa)?
Its MIC50 is 18.8 mg/mL.

What about the MIC90 (Pseudomonas aeruginosa) of the same compound?
The MIC90 was 18.8 mg/mL.

What about the MIC (Morganella morganii) of the same compound?
The MIC was 18.8 mg/mL.

What about the MIC (Haemophilus influenzae) of the same compound?
Its MIC is 4.69 to 9.38 mg/mL.

And the cell viability [3]?
Its cell viability is < 10^2 CFU/mL.

And the “mean CFU per mL of bladder tissue (tissue plus urine)” value (E. coli ATCC25922; 103 mg/kg pH 3.5 transurethral)?
Its value is 5.53 Log 10 CFUs/mL bladder tissue.

What about the “mean CFU per mL of bladder tissue (tissue plus urine)” value (E. coli ATCC25922; 207 mg/kg pH 3.5 transurethral) of the same compound?
The value was 4.60 Log 10 CFUs/mL bladder tissue.

And the “effect on cell envelope” value (P. aeruginosa K2732; BCP)?
Its value is “affect the cell envelope”.

And the cell membrane permeability (P. aeruginosa K2732; buffered pH 4 or unbuffered LB)?
Its cell membrane permeability is “increase cell membrane permeability”.
